[C12U] = 2'-deoxyuridine carrying a dodecyne (lipid) modification

A short description of series [1]: In-vitro adhesion to porcine eye. The following applies: NPs 20 μM, 15 minutes incubation, thoroughly washed in PBS. How it is done:
In order to further gauge the adherence of different nanoparticles (NPs) to the eye surface, porcine eyes were obtained from the local slaughterhouse and exposed to the different NPs. The NPs were prepared as described in example 1, section 1.2, at a concentration of 20 μM. The porcine eye was transferred to a 6-well plate and 2 rings of different diameter were placed on top of the cornea to prevent spillage of the NP solution. Subsequently, 50 μl of NP solution was put on top of the cornea and incubated for 15 minutes. Afterwards, the rings were removed using tweezers and the eyes were thoroughly washed in PBS (PAA, Germany). The eye was divided into two along the visual axis. Of the two halves one was stored in formaldehyde, whereas the other was frozen in Tissue Tek, cut on a cryostat, stained with DAPI and photographed as described in example 1. To determine the binding capabilities of the NPs, they were exposed to porcine eyes obtained from the local slaughterhouse. For comparison the NPs from example 1 were included in the experiments. After 15 minutes of incubation with the NPs, the porcine eye was thoroughly washed in PBS buffer and frozen in tissue tek. The adhesion to the cornea was evaluated by fluorescence microscopy (See FIG. 8).

Series [2] concerns corneal epithelium of living rats. As to the kind of experiment: Adhesion of fluorescently labelled DNA amphiphile NP eye drops to the cornea of living rats. The format is in vivo, rat. The following applies: for Number of NP positive eyes out of total number eyes: 20 μM, conscious rats; for adhesion to the cornea (fluorescence images of cryo sections): in-vivo rat eye. How it is done:
Adult Lister Hooded Rats were obtained from Harlan Winkelmann, Germany. For the eye drop applications the conscious rats were very shortly fixated and a drop was administered to the eye using a single drop device as in medical applications. Blinking of the eyes was not hindered during drop application or afterwards. After the designated incubation time-point the rat were sacrificed with carbon dioxide inhalation.
After the predetermined time point the animal was sacrificed and the eyes were enucleated and frozen in Tissue-Tek O.C.T. (Sakura Finetek, Germany) in liquid nitrogen. Frozen sections were longitudinally cut (12 μm) on a cryostat (Leica CM 1900, Germany), thaw-mounted onto glass slides (Superfrost plus, R. Langenbrinck Labor- and Medizintechnik, Germany) and stored at −30° C. until further use. Further processing was performed using standard procedures. Briefly, for visualisation sections were fixed with methanol and to stain nuclei, sections were further incubated in a solution containing 0.2 μg/ml 4′,6-diamidino-2-phenylindol (DAPI) for 1 min. Stained sections were embedded in FluorSave (Calbiochem, Germany) and imaged using a fluorescent microscope (Axioplan2 Imaging®, Zeiss, Germany with the Openlab software, Improvision, Germany).^33 Animals were treated according to the Principles of laboratory animal care (NIH publication No. 85-23, revised 1985), the OPRR Public Health Service Policy on the Human Care and Use of Laboratory Animals (revised 1986) and the German animal protection law (Research permission AK3/11 to S.S.)
The eye drops containing the different fluorescently labelled DNA amphiphiles at a concentration of 20 μM were administered to conscious rats using a single drop of 30 μL and 30 min, 2 or 24 h after application the animals were sacrificed. Cryo sections of the treated eyes were prepared and imaged using fluorescence microscopy. As controls, single stranded (ss) and double stranded (ds) DNA lacking the lipid-modified nucleotide were administered as eye drops in the same fashion. Selection of the best carrier was performed by comparing the number of DNA amphiphile stained eyes to the total number of eyes to which eye drops were given and, in the case of an equal amount of positives, by visual comparison of the cryo sections (see Table 3).
After selection of U4T-12 as the best carrier, the adherence time on the cornea was evaluated (see FIG. 3). The NPs of U4T-12 are already observed 5 min after application of the eye drops, thus showing a fast adherence to the cornea. Then the NPs are present for a period of at least four hours because distinct green fluorescence of the carrier was clearly visible. […] After these successful proof-of-concept experiments we applied U4T-12 aptamer-functionalized carriers loaded with neomycinB or kanamycinB because these two antibiotics are currently used for treatment of ophthalmic indications. For localization of the drug loaded carrier the aptamer was functionalized with a red fluorescent dye at the 5′ end. The eye drops were administered as described earlier and the adherence to the cornea was studied 5, 15 and 30 minutes after application (see FIG. 4).

Where [3] appears, read: 30 min after a single 30 μL eye drop.
Setting [4] is: 2 hours after a single 30 μL eye drop.
Where [5] appears, read: 24 hours after a single 30 μL eye drop.
Setting [6] is: rat, eye drops, green fluorescence of the carrier.

In the case of “U2M-12: amphiphile with sequence TCCUUGGCGCAG, lipid modified nucleotides situated inside the chain (lipid-modified nucleotides inside the chain, which positions not given here, further chemistry not given here)”, the “adherence to the porcine cornea (fluorescence microscopy)” value in series [1] is “hardly any adherence”.

Regarding “U2T-12: lipid modified oligonucleotide UUTGGCGGATTC (5′→3′), U = dodecyne modified deoxyuridine; forms micellar NPs (DNA, [C12U] at 1, 2, backbone and methylation of C not given here; forms micellar nanoparticles)”, the “Number of NP positive eyes out of total number eyes” value (from here on “Number”) is 2/4 in series [2] (setting [3]), 0/4 in series [2] (setting [4]) and 0/4 in series [2] (setting [5]). In series [2] (eye drops), the “adhesion to the cornea (fluorescence images of cryo sections)” value (“adhesion to the cornea” for short) is “adhere significantly less”.

Turning to “U4T-12: lipid modified oligonucleotide UUUUGCGGATTC (5′→3′), U = dodecyne modified deoxyuridine; forms micellar NPs (DNA, [C12U] at 1, 2, 3, 4, backbone and methylation of C not given here; forms micellar nanoparticles)”, the “Number” value is on record as 6/6 in series [2] (setting [3]), 4/6 in series [2] (setting [4]) and 0/4 in series [2] (setting [5]). Also, in series [2] (eye drops), the “adhesion to the cornea” value is on record as “best attachment”. In addition, in series [2] (setting [6]), the “adherence time on the cornea (period NPs are present)” value is recorded as “at least four”. For the same substance, the “time after application of the eye drops at which NPs are already observed on the cornea” value in series [2] (setting [6]) is listed as ≤ 5 min. Also, the “adherence to the porcine cornea (fluorescence microscopy)” value in series [1] is on record as “good adherence”.

Turning to “U4T-18: lipid modified oligonucleotide UUUUGCGGATTCGTCTGC (5′→3′), U = dodecyne modified deoxyuridine (DNA, [C12U] at 1, 2, 3, 4, backbone and methylation of C not given here)”, the “Number” value in series [2] (setting [3]) is recorded as 4/5; in series [2] (setting [4]), 0/4; in series [2] (setting [5]), 0/4.

Regarding “U6T-12: lipid modified oligonucleotide UUUUUUGGATTC (5′→3′), U = dodecyne modified deoxyuridine (DNA, [C12U] at 1, 2, 3, 4, 5, 6, backbone and methylation of C not given here)”, the “Number” value in series [2] (setting [3]) is 3/3; in series [2] (setting [4]) it was 1/4; in series [2] (setting [5]), 0/1. Besides, the “adhesion to the cornea” value in series [2] (eye drops) was “adhere significantly less”.

As to “U6T-20: lipid modified oligonucleotide UUUUUUGCGGATTCGTCTGC (5′→3′), U = dodecyne modified deoxyuridine (DNA, [C12U] at 1, 2, 3, 4, 5, 6, backbone and methylation of C not given here)”, the “Number” value in series [2] (setting [3]) is 2/2; in series [2] (setting [4]), 1/3; in series [2] (setting [5]), 0/3.

The values above are taken from US10285939B2, “Means and methods for ocular drug delivery” (Eberhard Karls Universität Tübingen Medizinische Fakultät, priority 2013, dated 2019).
